This note sets out measurements from ChEMBL document CHEMBL5137058, “Therapeutic Strategies to Target the Androgen Receptor” (J Med Chem, 2022).

The test system of series [1] is LNCaP. Nature of the series: Antitumor activity against human LNCaP cells xenografted in mouse assessed as decrease in PSA level at 100 mg/kg, sc. It counts as functional. On the set-up: scale not given: the % may be the effect or the level left.
Series [2] addresses T1, Androgen receptor (Homo sapiens, UniProt P10275).
T1 sequence (P10275 whole entry): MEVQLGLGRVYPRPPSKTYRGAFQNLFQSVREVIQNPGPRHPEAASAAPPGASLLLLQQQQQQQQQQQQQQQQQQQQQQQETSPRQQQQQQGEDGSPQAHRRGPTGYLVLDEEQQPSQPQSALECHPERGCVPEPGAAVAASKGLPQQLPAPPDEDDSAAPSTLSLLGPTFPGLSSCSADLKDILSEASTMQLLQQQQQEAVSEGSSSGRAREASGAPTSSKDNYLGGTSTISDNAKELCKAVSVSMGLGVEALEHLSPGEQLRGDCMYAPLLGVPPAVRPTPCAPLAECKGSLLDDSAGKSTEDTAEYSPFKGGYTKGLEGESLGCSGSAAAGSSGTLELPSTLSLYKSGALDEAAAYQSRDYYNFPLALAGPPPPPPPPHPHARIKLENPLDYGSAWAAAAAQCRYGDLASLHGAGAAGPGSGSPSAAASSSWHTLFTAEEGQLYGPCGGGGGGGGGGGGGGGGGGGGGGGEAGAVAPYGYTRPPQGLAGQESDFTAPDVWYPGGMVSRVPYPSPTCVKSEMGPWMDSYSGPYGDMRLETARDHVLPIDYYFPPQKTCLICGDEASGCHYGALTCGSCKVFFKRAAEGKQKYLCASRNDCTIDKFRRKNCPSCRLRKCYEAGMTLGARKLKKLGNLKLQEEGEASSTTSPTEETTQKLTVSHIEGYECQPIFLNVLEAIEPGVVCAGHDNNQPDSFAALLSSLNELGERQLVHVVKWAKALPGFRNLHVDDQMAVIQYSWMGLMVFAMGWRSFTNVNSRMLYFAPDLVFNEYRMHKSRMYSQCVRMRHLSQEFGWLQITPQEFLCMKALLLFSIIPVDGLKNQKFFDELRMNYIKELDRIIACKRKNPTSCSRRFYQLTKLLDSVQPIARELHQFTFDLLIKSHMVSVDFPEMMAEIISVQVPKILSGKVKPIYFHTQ
In words: Binding affinity to wild-type Androgen receptor (unknown origin).

Series [3] is described as follows: Antitumor activity against bicalutamide-resistant human LNCaP-cxD2 cells xenografted in mouse at 50 mg/kg, po administered for 28 days. It counts as functional. The conditions noted are these: time 28 day. (A xenograft is tissue or cells of one species grown in another, often human tumour cells in immunodeficient mice.)
The target of series [4] is T1, Androgen receptor. In words: Antagonist activity at wild-type Androgen receptor (unknown origin) expressed in African green monkey COS-7 cells measured as gene transcription level. It counts as cell-based.
Series [5] can be described thus: In vivo agonist activity at Androgen receptor in castrated rat assessed as increase in prostate weight at 2 mg administered orally per day for 5 days. The note with it: route po, time 5 day. It counts as functional.
Series [6] can be described thus: In vivo agonist activity at Androgen receptor in castrated rat assessed as increase in levator ani muscle weight at 2 mg administered orally per day for 5 days. It counts as functional. The note with it: route po, time 5 day.
Series [7] deals with T2, Androgen receptor (Homo sapiens, UniProt P10275, T878A). Nature of the series: Binding affinity to bicalutamide-resistant Androgen receptor T878A mutant (unknown origin).
T2 sequence (P10275 whole entry T878A): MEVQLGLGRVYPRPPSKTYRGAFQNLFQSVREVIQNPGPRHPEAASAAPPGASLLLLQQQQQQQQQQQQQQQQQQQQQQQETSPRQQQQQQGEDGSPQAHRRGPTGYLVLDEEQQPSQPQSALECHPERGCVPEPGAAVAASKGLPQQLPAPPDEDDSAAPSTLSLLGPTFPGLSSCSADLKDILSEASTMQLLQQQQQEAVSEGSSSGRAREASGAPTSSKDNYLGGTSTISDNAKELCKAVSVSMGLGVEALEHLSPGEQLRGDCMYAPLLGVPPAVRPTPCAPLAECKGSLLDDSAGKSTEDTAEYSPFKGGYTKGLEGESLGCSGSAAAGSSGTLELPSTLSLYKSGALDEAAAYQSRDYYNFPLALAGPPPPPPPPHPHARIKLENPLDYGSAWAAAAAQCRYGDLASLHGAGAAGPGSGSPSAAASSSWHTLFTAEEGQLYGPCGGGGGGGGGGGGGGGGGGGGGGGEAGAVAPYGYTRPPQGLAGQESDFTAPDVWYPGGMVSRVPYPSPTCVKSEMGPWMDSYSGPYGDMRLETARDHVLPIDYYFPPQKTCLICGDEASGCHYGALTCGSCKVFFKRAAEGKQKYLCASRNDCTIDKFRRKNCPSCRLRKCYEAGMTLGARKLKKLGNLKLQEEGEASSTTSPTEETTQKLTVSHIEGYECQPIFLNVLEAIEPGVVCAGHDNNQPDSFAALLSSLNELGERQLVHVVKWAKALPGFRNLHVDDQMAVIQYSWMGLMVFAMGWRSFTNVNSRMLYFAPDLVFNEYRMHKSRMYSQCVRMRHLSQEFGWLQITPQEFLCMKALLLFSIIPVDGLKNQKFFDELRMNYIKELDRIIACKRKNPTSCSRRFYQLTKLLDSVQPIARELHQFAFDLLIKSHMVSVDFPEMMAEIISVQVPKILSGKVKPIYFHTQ
The subject of series [8] is LNCaP. In words: Antiproliferative activity against human LNCaP cells expressing Androgen receptor T878A mutant. It counts as functional, cell-based.
Series [9] has as its system LNCaP. Nature of the series: Antiproliferative activity against human LNCaP cells expressing wild-type Androgen receptor. It counts as functional, cell-based.
Series [10] deals with T1, Androgen receptor. In words: Binding affinity to Androgen receptor (unknown origin). The note with it: read-out: pIC50 (converted).
For series [11], the system named is Rattus norvegicus. Nature of the series: Anti-androgenic activity in rat assessed as decrease in seminal vesicle weight at 2.58 microM/Kg, po administered twice daily for 7 days. It counts as functional. Set-up: scale not given: the % may be the effect or the level left. The conditions noted are these: time 7 day, at 2.58 µmol/kg.
Series [12] can be described thus: Oral bioavailability in rat. It counts as ADME, organism-based. The note with it: in vivo.
In series [13] the target is T1, Androgen receptor. In words: Antagonist activity at Androgen receptor (unknown origin) assessed as downregulation of AR.
Series [14] deals with Androgen receptor (Rattus norvegicus, UniProt P15207). In words: Binding affinity to rat Androgen receptor in African green monkey COS-7 cells measured by whole-cell binding assay. It counts as cell-based.
Chain of Androgen receptor (Rattus norvegicus, UniProt P15207) (P15207 whole entry S389L): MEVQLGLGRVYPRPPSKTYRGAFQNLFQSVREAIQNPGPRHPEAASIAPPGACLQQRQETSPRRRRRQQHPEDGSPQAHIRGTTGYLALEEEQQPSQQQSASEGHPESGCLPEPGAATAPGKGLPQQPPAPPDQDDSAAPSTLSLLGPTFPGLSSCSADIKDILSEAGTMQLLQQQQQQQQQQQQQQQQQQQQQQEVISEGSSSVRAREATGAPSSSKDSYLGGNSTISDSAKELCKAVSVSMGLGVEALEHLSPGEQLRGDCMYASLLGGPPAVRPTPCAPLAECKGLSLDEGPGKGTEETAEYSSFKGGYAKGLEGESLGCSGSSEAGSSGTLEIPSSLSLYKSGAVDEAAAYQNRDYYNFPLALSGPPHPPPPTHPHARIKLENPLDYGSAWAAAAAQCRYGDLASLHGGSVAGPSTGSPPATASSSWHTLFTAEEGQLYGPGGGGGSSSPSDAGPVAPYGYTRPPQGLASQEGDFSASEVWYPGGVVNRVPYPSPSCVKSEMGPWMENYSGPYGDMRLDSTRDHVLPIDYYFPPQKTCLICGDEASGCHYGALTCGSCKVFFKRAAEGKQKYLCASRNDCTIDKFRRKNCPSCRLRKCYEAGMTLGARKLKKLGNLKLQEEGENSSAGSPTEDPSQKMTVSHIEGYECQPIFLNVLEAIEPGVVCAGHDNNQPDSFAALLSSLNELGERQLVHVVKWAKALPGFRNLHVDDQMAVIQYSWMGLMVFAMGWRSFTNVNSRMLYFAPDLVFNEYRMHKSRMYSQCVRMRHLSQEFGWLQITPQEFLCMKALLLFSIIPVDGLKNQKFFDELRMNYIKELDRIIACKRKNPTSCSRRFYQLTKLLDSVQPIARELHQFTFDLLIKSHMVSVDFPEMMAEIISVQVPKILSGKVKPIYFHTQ
For series [15], the system named is LNCaP. In words: Antitumor activity against human LNCaP cells xenografted in mouse assessed as decrease in PSA level at 25 mg/kg, sc. It counts as functional. On the set-up: scale not given: the % may be the effect or the level left.
A short description of series [16]: Antitumor activity against bicalutamide-resistant human LNCaP-cxD2 cells xenografted in mouse at 25 mg/kg, po administered for 28 days. It counts as functional. The note with it: time 28 day.
The target in series [17] is T2, Androgen receptor. In words: Antagonist activity at Androgen receptor T877A mutant (unknown origin) expressed in African green monkey COS-7 cells measured as gene transcription level. It counts as cell-based.
The target in series [18] is T2, Androgen receptor. In words: Binding affinity to bicalutamide-resistant Androgen receptor T877A mutant (unknown origin).
The nature of series [19]: In vivo agonist activity at Androgen receptor in male rat assessed as increase in prostate weight at 2 mg/kg, po administered for 5 days. It counts as functional. The note with it: time 5 day.
A short description of series [20]: In vivo agonist activity at Androgen receptor in male rat assessed as increase in levator ani muscle weight at 2 mg/kg, po administered for 5 days. It counts as functional. The note with it: time 5 day.
In series [21] the target is T1, Androgen receptor. In words: Activation of human Androgen receptor N/C (N-terminal/C-terminal) interaction.
The target of series [22] is T1, Androgen receptor. In words: Agonist activity at human Androgen receptor expressed in African green monkey CV-1 cells measured by ARE-luciferase assay. It counts as cell-based.
In series [23] the target is T1, Androgen receptor. In words: Antagonist activity at Androgen receptor (unknown origin) assessed as inhibition of activation function 1 (AF-1) of AR N-terminal transactivation domain (NTD).
Series [24] deals with T1, Androgen receptor. In words: Antagonist activity at Androgen receptor in human LNCaP cells measured by SEAP reporter gene assay. It counts as cell-based. On the technique in general: A reporter such as luciferase makes a cellular process visible.
For series [25], the system named is Rattus norvegicus. In words: Antagonist activity in mature male Sprague-Dawley rat assessed as decrease in seminal vesicle and prostate weight at 1 mg/kg, po administered once a day for 14 days. The note with it: time 14 day. On the set-up: scale not given: the % may be the effect or the level left. It counts as functional.
Series [26] deals with Rattus norvegicus. In words: Antagonist activity in mature male Sprague-Dawley rat assessed as decrease in seminal vesicle and prostate weight at 10 mg/kg, po administered once a day for 14 days. Set-up: scale not given: the % may be the effect or the level left. The conditions noted are these: time 14 day. It counts as functional.
In series [27] the target is T1, Androgen receptor. In words: Antagonist activity at Androgen receptor in human MDA-MB-453 cells measured by SEAP reporter gene assay. It counts as cell-based.
The target of series [28] is T1, Androgen receptor. Nature of the series: Displacement of [3H]DHT from Androgen receptor expressed in human MDA-MB-453 cells. It counts as cell-based. For orientation: Loss of bound radioactivity is the signal in a displacement assay; it reports binding, not function.
Series [29] in a line: Antiproliferative activity against androgen-sensitive mouse SEM-107 cells. It counts as functional, cell-based.
For series [30], the system named is T47D. Nature of the series: Antiproliferative activity against human T47D cells. It counts as functional, cell-based.
Series [31] in a line: In vivo agonist activity at Androgen receptor in castrated male rat assessed as increase in levator ani muscle weight at 0.75 mg/kg, po administered for 14 days. It counts as functional. The note with it: time 14 day.
Series [32] addresses T1, Androgen receptor. In words: Binding affinity to human Androgen receptor.
Series [33] is described as follows: In vivo agonist activity at Androgen receptor in castrated male rat assessed as increase in prostate weight at 0.75 mg/kg, po administered for 14 days. It counts as functional. The note with it: time 14 day.

Consider `CC1(C)[C@H](NC(=O)c2cnn(CCO)c2)C(C)(C)[C@H]1Oc1ccc(C#N)c(Cl)c1`, for which the Activity in series [1] was above 90%.

As to `Cc1nn(-c2ccc(C#N)c(Cl)c2)c(C)c1Oc1ccc(C(=O)NC(C)(C)C)cn1`, the IC50 in series [2] turned out to be 430 nM; in [4], 1000 nM. In [3], this compound gave a T/C of 17%.

As for `C[C@@]12CC(C(F)(F)F)=NN1C(=O)N(c1ccc(C#N)c(C(F)(F)F)c1)C2=O`, the Activity in [5] is 11%; in series [6], 75%.

`CNC(=O)c1ccc([C@]2(O)CCN(c3ccc(C#N)c(Cl)c3)[C@H]2C)cn1`: the IC50 in series [2] came to 830 nM; in series [7] it was 1700 nM; in series [8], 1700 nM; in series [9] it was 290 nM.

For the compound `N#Cc1ccc(CN2CCN(c3ccc4nnc(C(F)(F)F)n4n3)CC2)cc1`, the results for the IC50 in series [10] and in [13] were above 79400 nM and above 1580 nM, respectively. Moreover, the Activity in [11] came out at 80%. The same compound displayed a bioavailability in series [12] of 100%.

Compound `OC1(C(F)(F)F)CCCC2c3cc(Cl)c(Cl)cc3NC21` (stereo unspecified) displayed an IC50 in series [14] of 27 nM.

Turning to `Cc1nc(O[C@H]2C(C)(C)[C@H](NC(=O)c3cnc4ncccn34)C2(C)C)ccc1C#N`, the Activity in [15] was above 90%.

`Cc1c(C#N)c(-c2ccc(C#N)cc2)c(C)n1-c1cnc(Cl)c(CO)c1`: the IC50 in series [2] was found to be 37 nM; in series [17], 110 nM; in [18] it was 100 nM; in [4], 25 nM. Besides, the T/C in [16] turned out to be 15%.

In the case of `Cc1c(/N=C2\N=C(N)N3N=C(C(F)(F)F)C[C@@]23C)ccc(C#N)c1C(F)(F)F`, the Activity in series [19] is recorded as 36%; in series [20], 91%.

As for `N#Cc1ccc(-c2ccc(O)cc2F)[nH]1`, the EC50 was determined as 1210 nM in series [21] and 0.34 nM in [22].

Consider `CC(=O)OC[C@H](COc1ccc(C(C)(C)c2ccc(OC[C@@H](CCl)OC(C)=O)cc2)cc1)OC(C)=O` [RALANITEN ACETATE], for which the IC50 in series [23] was found to be 9600 nM.

In the case of `CCS(=O)(=O)N[C@@H]1C[C@@]2(C)O[C@]1(C)[C@@H]1C(=O)N(c3ccc(C#N)c(C(F)(F)F)c3)C(=O)[C@@H]12`, the IC50 in [24] was 153 nM; in [27], 16 nM. Besides, the values for the Activity in series [25] and in series [26] were 42% and 74%, respectively. Further, the Ki in [28] is 1.7 nM.

As for `CC(C)(O)C(=O)Nc1ccc([N+](=O)[O-])c(C(F)(F)F)c1` [HYDROXYFLUTAMIDE], the IC50 stood at 84 nM in [29] and 45 nM in [30].

Consider `Cc1c(N2C3CCC2CC(C)(O)C3)ccc(C#N)c1Cl` (stereo unspecified), for which the Activity was 68% in [31] and 21% in [33]. Moreover, the IC50 in [32] came to 1 nM.

One may read the T/C as the result in the treated group divided by that in the control group, in per cent. Broadly, the bioavailability is the share of a dose that reaches the circulation, judged against a reference dose that is usually intravenous. Usually EC50 stands for the concentration at which the effect is half-maximal. As usually defined, the Ki is a dissociation constant, usually derived from enzyme kinetics or from competition with a known ligand.
